“Also recorded” adds a separate entry of the source. Structures can show the parent of a compound that is named as a salt. Where two headings read alike, the source gives them in different places.
Tests used:
DPP IV = target: T1, DPP IV (Felis catus, UniProt Q9N2I7); experiment: Exploratory multiple dose PK/PD (1.0/3.0/9.0 mg/animal, 14 days) in cats: DPP IV activity; format: in vivo, cat; conditions: for response vs control in vivo at 1 mg/animal: head 1 mg/animal (title 1.0 mg/animal); for response vs control in vivo at 1 mg/animal / response vs control in vivo at 3 mg/animal / response vs control in vivo at 9 mg/animal: read-out: DPP IV activity in cat plasma; for response vs control in vivo at 3 mg/animal: head 3 mg/animal (title 3.0 mg/animal)
T1 construct: Blood samples for the determination of this compound and DPP IV activity were collected; from tissue; host or cells: plasma of domestic short hair / purpose-bred cats dosed orally
T1 sequence (Q9N2I7 38-765 limits assumed): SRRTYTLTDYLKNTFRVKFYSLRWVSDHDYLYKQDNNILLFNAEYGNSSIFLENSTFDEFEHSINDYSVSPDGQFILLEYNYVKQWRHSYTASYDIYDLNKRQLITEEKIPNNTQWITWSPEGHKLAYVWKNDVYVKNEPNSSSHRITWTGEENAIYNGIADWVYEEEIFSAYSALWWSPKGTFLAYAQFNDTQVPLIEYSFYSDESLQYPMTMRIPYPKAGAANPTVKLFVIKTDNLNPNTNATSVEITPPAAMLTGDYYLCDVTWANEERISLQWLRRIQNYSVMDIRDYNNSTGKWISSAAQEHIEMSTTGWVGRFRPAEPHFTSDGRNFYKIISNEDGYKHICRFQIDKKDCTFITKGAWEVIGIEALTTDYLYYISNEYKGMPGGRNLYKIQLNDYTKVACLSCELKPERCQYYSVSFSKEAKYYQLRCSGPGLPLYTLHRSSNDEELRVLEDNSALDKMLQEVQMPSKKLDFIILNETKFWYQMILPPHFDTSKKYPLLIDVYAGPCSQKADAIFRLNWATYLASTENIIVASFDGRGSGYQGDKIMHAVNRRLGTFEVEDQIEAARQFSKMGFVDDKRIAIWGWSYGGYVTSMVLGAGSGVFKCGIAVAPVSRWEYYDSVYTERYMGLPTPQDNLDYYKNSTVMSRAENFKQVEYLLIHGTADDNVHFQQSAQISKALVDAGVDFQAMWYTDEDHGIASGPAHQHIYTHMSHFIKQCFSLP
Procedure: The aim of this study was to investigate the PK/PD effects of 1-[(3-cyano-pyridin-2-yl)methyl]-3-methyl-7-(2-butyn-1-yl)-8-[3-(R)-amino-piperidin-1-yl]-xanthine in cats following repeated oral administration of 0, 1, 3 and 9 mg/animal over 14 days corresponding to a dose of 0, 0.25, 0.75 and 2.25 mg/kg body weight for a cat weighing 4 kg. (Dosages were based on the free base: 1 mg 1-[(3-cyano-pyridin-2-yl)methyl]-3-methyl-7-(2-butyn-1-yl)-8-[3-(R)-amino-piperidin-1-yl]-xanthine monohydrochloride corresponds to 0.923 mg 1-[(3-cyano-pyridin-2-yl)methyl]-3-methyl-7-(2-butyn-1-yl)-8-[3-(R)-amino-piperidin-1-yl]-xanthine free base).
For this purpose, twelve clinically healthy male adult domestic short hair cats with a body weight range of 3.5-4.8 kg were used. The animals were randomly allocated to 4 groups, 3 animals per group. All animals were treated once daily orally for 14 days (i.e. on days 0-13). The test article was administered via capsules at doses of 1 (group II), 3 (group III) or 9 (group IV) mg of the monohydrochloride compound per animal; group I received placebo serving as controls. Blood samples for PK and PD (DPP IV activity) investigations were drawn at 0 h (i.e. prior to the 1st treatment), 0.5, 1, 2, 4, 8, 12 and 24 h after the 1st treatment as well as 24 h after the 3rd, 5th, 7th, 9th, 11th and 13th treatment and 0.5, 1, 2, 4, 8, 12 and 24 h after the 14th treatment.

[1] = 60-Day tolerability study of tablets in cats: adverse effects; format: in vivo; conditions: 20 and 40 mg daily oral tablets for 60 days, monohydrochloride
Procedure: This study was conducted in order to examine the long-term tolerability of a pharmaceutical composition comprising 1-[(3-cyano-pyridin-2-yl)methyl]-3-methyl-7-(2-butyn-1-yl)-8-[3-(R)-amino-piperidin-1-yl]-xanthine monohydrochloride in cats after repeated oral administration for 60-days.
For this purpose, the compound according to the invention has been admixed with standard ingredients to a scored, oblong, brown tablet, size 10×5.5 mm, comprising 1-[(3-cyano-pyridin-2-yl)methyl]-3-methyl-7-(2-butyn-1-yl)-8-[3-(R)-amino-piperidin-1-yl]-xanthine monohydrochloride at 21.68 mg of the chloride per tablet (which equals 20 mg of the free base) and 10% meat flavour.
20 male healthy non-obese cats (Domestic short hair feline) supplied by Liberty Research, Inc., Waverly, N.Y., USA, of an age of 13 to 20 months were used. After an adaptation period of 4 weeks, they were separated into three groups: group 1 (6 members, no. 1 to 6) for placebo treatment, group 2 (7 members, no. 7 to 13) for treatment with 20 mg/cat, group 3 (7 members, no. 14 to 20) for treatment with 40 mg/cat. They were treated once daily in the morning, orally with the respective tablet(s) for 60 days. All animals had fasted over night and were fed 4 hours after the administration. Drinking water was offered ad libitum. […]

[2] = 0.5 h, once daily oral 14 days, 0.5 h
[3] = 1 h, once daily oral 14 days, 1 h
[4] = 2 h, once daily oral 14 days, 2 h
[5] = 4 h, once daily oral 14 days, 4 h
[6] = 8 h, once daily oral 14 days, 8 h
[7] = 12 h, once daily oral 14 days, 12 h
[8] = 24 h, once daily oral 14 days, 24 h
[9] = 72 h, once daily oral 14 days, 72 h
[10] = 120 h, once daily oral 14 days, 120 h
[11] = 168 h, once daily oral 14 days, 168 h
[12] = 216 h, once daily oral 14 days, 216 h
[13] = 264 h, once daily oral 14 days, 264 h
[14] = 312 h, once daily oral 14 days, 312 h
[15] = 312.5 h, once daily oral 14 days, 312.5 h
[16] = 313 h, once daily oral 14 days, 313 h
[17] = 314 h, once daily oral 14 days, 314 h
[18] = 316 h, once daily oral 14 days, 316 h
[19] = 320 h, once daily oral 14 days, 320 h
[20] = 324 h, once daily oral 14 days, 324 h
[21] = 336 h, once daily oral 14 days, 336 h

CC#CCn1c(N2CCC[C@@H](N)C2)nc2c1c(=O)n(Cc1ncccc1C#N)c(=O)n2C [1-[(3-cyano-pyridin-2-yl)methyl]-3-methyl-7-(2-butyn-1-yl)-8-[3-(R)-amino-piperidin-1-yl]-xanthine monohydrochloride]
response vs control in vivo at 1 mg/animal (DPP IV; [2]): 31.3%
response vs control in vivo at 3 mg/animal (DPP IV; [2]): 16%
response vs control in vivo at 9 mg/animal (DPP IV; 0.5 h, head 9 mg/animal (title 9.0 mg/animal), once daily oral 14 days, 0.5 h): 8%
response vs control in vivo at 1 mg/animal (DPP IV; [3]): 8.7%
response vs control in vivo at 3 mg/animal (DPP IV; [3]): 10.3%
response vs control in vivo at 9 mg/animal (DPP IV; 1 h, head 9 mg/animal (title 9.0 mg/animal), once daily oral 14 days, 1 h): 7.3%
response vs control in vivo at 1 mg/animal (DPP IV; [4]): 9.7%
response vs control in vivo at 3 mg/animal (DPP IV; [4]): 8%
response vs control in vivo at 9 mg/animal (DPP IV; 2 h, head 9 mg/animal (title 9.0 mg/animal), once daily oral 14 days, 2 h): 7%
response vs control in vivo at 1 mg/animal (DPP IV; [5]): 11.7%
response vs control in vivo at 3 mg/animal (DPP IV; [5]): 8%
response vs control in vivo at 9 mg/animal (DPP IV; 4 h, head 9 mg/animal (title 9.0 mg/animal), once daily oral 14 days, 4 h): 8%
response vs control in vivo at 1 mg/animal (DPP IV; [6]): 17%
response vs control in vivo at 3 mg/animal (DPP IV; [6]): 11.3%
response vs control in vivo at 9 mg/animal (DPP IV; 8 h, head 9 mg/animal (title 9.0 mg/animal), once daily oral 14 days, 8 h): 9.3%
response vs control in vivo at 1 mg/animal (DPP IV; [7]): 28%
response vs control in vivo at 3 mg/animal (DPP IV; [7]): 14%
response vs control in vivo at 9 mg/animal (DPP IV; 12 h, head 9 mg/animal (title 9.0 mg/animal), once daily oral 14 days, 12 h): 10.7%
response vs control in vivo at 1 mg/animal (DPP IV; [8]): 57.7%
response vs control in vivo at 3 mg/animal (DPP IV; [8]): 31.7%
response vs control in vivo at 9 mg/animal (DPP IV; 24 h, head 9 mg/animal (title 9.0 mg/animal), once daily oral 14 days, 24 h): 18%
response vs control in vivo at 1 mg/animal (DPP IV; [9]): 35.3%
response vs control in vivo at 3 mg/animal (DPP IV; [9]): 23.3%
response vs control in vivo at 9 mg/animal (DPP IV; 72 h, head 9 mg/animal (title 9.0 mg/animal), once daily oral 14 days, 72 h): 14.3%
response vs control in vivo at 1 mg/animal (DPP IV; [10]): 63%
response vs control in vivo at 3 mg/animal (DPP IV; [10]): 31.7%
response vs control in vivo at 9 mg/animal (DPP IV; 120 h, head 9 mg/animal (title 9.0 mg/animal), once daily oral 14 days, 120 h): 17.7%
response vs control in vivo at 1 mg/animal (DPP IV; [11]): 54%
response vs control in vivo at 3 mg/animal (DPP IV; [11]): 41%
response vs control in vivo at 9 mg/animal (DPP IV; 168 h, head 9 mg/animal (title 9.0 mg/animal), once daily oral 14 days, 168 h): 14.7%
response vs control in vivo at 1 mg/animal (DPP IV; [12]): 57%
response vs control in vivo at 3 mg/animal (DPP IV; [12]): 31.7%
response vs control in vivo at 9 mg/animal (DPP IV; 216 h, head 9 mg/animal (title 9.0 mg/animal), once daily oral 14 days, 216 h): 15%
response vs control in vivo at 1 mg/animal (DPP IV; [13]): 32.7%
response vs control in vivo at 3 mg/animal (DPP IV; [13]): 19.3%
response vs control in vivo at 9 mg/animal (DPP IV; 264 h, head 9 mg/animal (title 9.0 mg/animal), once daily oral 14 days, 264 h): 14%
response vs control in vivo at 1 mg/animal (DPP IV; [14]): 61.3%
response vs control in vivo at 3 mg/animal (DPP IV; [14]): 34%
response vs control in vivo at 9 mg/animal (DPP IV; 312 h, head 9 mg/animal (title 9.0 mg/animal), once daily oral 14 days, 312 h): 17.3%
response vs control in vivo at 1 mg/animal (DPP IV; [15]): 14%
response vs control in vivo at 3 mg/animal (DPP IV; [15]): 9%
response vs control in vivo at 9 mg/animal (DPP IV; 312.5 h, head 9 mg/animal (title 9.0 mg/animal), once daily oral 14 days, 312.5 h): 10%
response vs control in vivo at 1 mg/animal (DPP IV; [16]): 14%
response vs control in vivo at 3 mg/animal (DPP IV; [16]): 8.3%
response vs control in vivo at 9 mg/animal (DPP IV; 313 h, head 9 mg/animal (title 9.0 mg/animal), once daily oral 14 days, 313 h): 7.7%
response vs control in vivo at 1 mg/animal (DPP IV; [17]): 13.3%
response vs control in vivo at 3 mg/animal (DPP IV; [17]): 8.7%
response vs control in vivo at 9 mg/animal (DPP IV; 314 h, head 9 mg/animal (title 9.0 mg/animal), once daily oral 14 days, 314 h): 7.7%
response vs control in vivo at 1 mg/animal (DPP IV; [18]): 14.7%
response vs control in vivo at 3 mg/animal (DPP IV; [18]): 9.7%
response vs control in vivo at 9 mg/animal (DPP IV; 316 h, head 9 mg/animal (title 9.0 mg/animal), once daily oral 14 days, 316 h): 8%
response vs control in vivo at 1 mg/animal (DPP IV; [19]): 22.3%
response vs control in vivo at 3 mg/animal (DPP IV; [19]): 12.3%
response vs control in vivo at 9 mg/animal (DPP IV; 320 h, head 9 mg/animal (title 9.0 mg/animal), once daily oral 14 days, 320 h): 10.3%
response vs control in vivo at 1 mg/animal (DPP IV; [20]): 32.3%
response vs control in vivo at 3 mg/animal (DPP IV; [20]): 15%
response vs control in vivo at 9 mg/animal (DPP IV; 324 h, head 9 mg/animal (title 9.0 mg/animal), once daily oral 14 days, 324 h): 12%
response vs control in vivo at 1 mg/animal (DPP IV; [21]): 67.7%
response vs control in vivo at 3 mg/animal (DPP IV; [21]): 31.3%
response vs control in vivo at 9 mg/animal (DPP IV; 336 h, head 9 mg/animal (title 9.0 mg/animal), once daily oral 14 days, 336 h): 18.7%
time up to which mean DPP IV values remained ≦20% after 1st treatment (DPP IV; group II (1 mg per animal)): 8 h
time up to which mean DPP IV values remained ≦20% after the 14th treatment (DPP IV; group II (1 mg per animal)): 4 h
minimum mean DPP IV values after treatment on day 0 (DPP IV; group II (1 mg per animal), at 1 h): 9%
mean DPP IV activity, range 24 h after 3rd-13th treatment (72-312 h) (DPP IV; group II (1 mg/cat)): 33-63%
time up to which mean DPP IV values remained ≦20% after 1st treatment (DPP IV; group III (3 mg per animal)): 12 h
time up to which mean DPP IV values remained ≦20% after the 14th treatment (DPP IV; group III (3 mg per animal)): 12 h
minimum mean DPP IV values after treatment on day 0 (DPP IV; group III (3 mg per animal), at 2 and 4 h): 8%
mean DPP IV activity, range 24 h after 3rd-13th treatment (72-312 h) (DPP IV; group III (3 mg/cat)): 19-41%
time up to which mean DPP IV values remained ≦20% after 1st treatment (DPP IV; group IV (9 mg per animal)): 24 h
time up to which mean DPP IV values remained ≦20% after the 14th treatment (DPP IV; group IV (9 mg per animal)): 24 h
minimum mean DPP IV values after treatment on day 0 (DPP IV; group IV (9 mg per animal), at 1 and 2 h): 7%
mean DPP IV activity, range 24 h after 3rd-13th treatment (72-312 h) (DPP IV; group IV (9 mg/cat)): 14-18%
DPP IV activity in cat plasma (DPP IV; head 9 mg/animal (title 9.0 mg/animal), once daily oral 14 days, 312.5 h, monohydrochloride): 10.0%
adverse effects / tolerability [1]: Adverse effects were not detected; also recorded: well tolerated

Reference: US20140228287A1, “1-[(3-CYANO-PYRIDIN-2-YL)METHYL]-3-METHYL-7-(2-BUTYN-1-YL)-8-[3-(R)-AMINO-PIPERIDIN-1-YL]-AXANTHINE FOR THE TREATMENT OF A METABOLIC DISORDER OF A PREDOMINANTLY CARNIVOROUS NON-HUMAN ANIMAL” (BOEHRINGER INGELHEIM VETMEDICA GMBH, priority 2010, published 2014)
